Measurements taken from ChEMBL document CHEMBL4007397, “Discovery of First-in-Class, Potent, and Orally Bioavailable Embryonic Ectoderm Development (EED) Inhibitor with Robust Anticancer Efficacy” (J Med Chem, 2017).
pIC50: −log10 of the molar value. ≈ marks a conversion by molar mass, not a printed value. Each block holds one molecule with its values, some of them ahead of it. Calls of active or inactive are those of the source. The calls are words filed in the database; no cut-off is given here.

What was measured:
Polycomb protein EED [1] = target: T1, Polycomb protein EED (Homo sapiens, UniProt O75530)
Description: Inhibition of recombinant N-terminal GST-tagged EED (76 to 441 residues) (unknown origin) expressed in Escherichia coli BL21-CodonPlus(DE3)-RIL assessed as reduction in SAH production using H3[21-44,K27Me0) peptide as substrate measured after 20 mins by LC/MS/MS method

Polycomb protein EED [2] = target: T1, Polycomb protein EED; experiment: Inhibition of EED in human G401 cells assessed as reduction in global H3K27me3 level after 48 hrs by ELISA; assay type: cell-based
KARPAS-422 [3] = experiment: Antiproliferative activity against human KARPAS422 cells harboring monoallelic Y641N EZH2 mutation assessed as reduction in cell viability measured every 3 to 4 days up to 14 days by Beckman Coulter-based method; assay type: functional
[4] = Hepatic extraction ratio in mouse liver microsomes; assay type: ADME, microsome; conditions: read-out: ERH
[5] = Protein binding in mouse plasma assessed as unbound fraction; assay type: ADME, cell-free
Mus musculus [6] = experiment: Dose normalized AUC in CD-1 mouse at 1 mg/kg, iv by LC-MS/MS analysis; assay type: ADME, organism-based; conditions: in vivo
Mus musculus [7] = experiment: Dose normalized AUC in CD-1 mouse at 2 mg/kg, po by LC-MS/MS analysis; assay type: ADME, organism-based; conditions: in vivo
Mus musculus [8] = experiment: Dose normalized unbound AUC in CD-1 mouse at 2 mg/kg, po by LC-MS/MS analysis; assay type: ADME, organism-based; conditions: in vivo
[9] = (§1) Oral bioavailability in CD-1 mouse at 2 mg/kg by LC-MS/MS analysis; assay type: ADME, organism-based; conditions: CD-1, mouse, in vivo
in vivo [10] = conditions: CD-1, mouse, plasma, iv, 1 mg/kg
in vivo [11] = conditions: CD-1, mouse, iv, 1 mg/kg
Description: Volume of distribution at steady state in CD-1 mouse at 1 mg/kg, iv or 2 mg/kg, po by LC-MS/MS analysis

in vivo [12] = conditions: CD-1, mouse
Mus musculus [13] = experiment: as §1; assay type: ADME, organism-based; conditions: mouse, in vivo
[14] = Permeability across apical to basolateral side of human Caco2 cells; assay type: ADME, cell-based; conditions: Caco-2, read-out: permeability
[15] = Equilibrium solubility of the compound by high-throughput assay; assay type: physicochemical
[16] = Solubility of the crystalline form of compound at pH 7; assay type: physicochemical
[17] = Solubility of the crystalline form of compound at pH 3; assay type: physicochemical
[18] = Solubility of the crystalline form of compound in simulated gastric fluid; assay type: physicochemical
[19] = Solubility of the crystalline form of compound in fasted state simulated intestinal fluid; assay type: physicochemical
[20] = Protein binding in Sprague-Dawley rat plasma assessed as unbound fraction; assay type: ADME, cell-free
[21] = Plasma protein binding in Beagle dog assessed as unbound fraction; assay type: ADME, cell-free, Canis lupus familiaris
[22] = Protein binding in human plasma assessed as unbound fraction; assay type: ADME, cell-free
Rattus norvegicus = experiment: Dose normalized unbound AUC in Sprague-Dawley rat at 2 mg/kg, po by LC-MS/MS analysis; assay type: ADME, organism-based; conditions: in vivo
Canis familiaris = experiment: Dose normalized unbound AUC in Beagle dog at 2 mg/kg, po by LC-MS/MS analysis; assay type: ADME, organism-based, Canis lupus familiaris; conditions: in vivo
[23] = Total clearance in Sprague-Dawley rat at 1 mg/kg, iv or 2 mg/kg, po by LC-MS/MS analysis; assay type: ADME, organism-based; conditions: in vivo
[24] = Total clearance in Beagle dog at 1 mg/kg, iv or 2 mg/kg, po by LC-MS/MS analysis; assay type: ADME, organism-based, Canis lupus familiaris; conditions: in vivo
[25] = Oral bioavailability in Sprague-Dawley rat at 2 mg/kg by LC-MS/MS analysis; assay type: ADME, organism-based; conditions: in vivo
[26] = Oral bioavailability in Beagle dog at 2 mg/kg by LC-MS/MS analysis; assay type: ADME, organism-based, Canis lupus familiaris; conditions: in vivo
Mus musculus [27] = experiment: Toxicity in CD-1 mouse assessed as effect on body weight at 300 mg/kg, po BID after 14 day; assay type: organism-based; conditions: in vivo, 336 h
KARPAS-422 [28] = experiment: Antitumor activity against human KARPAS422 cells xenografted in Balb/C nude mouse assessed as tumor regression at 300 mg/kg, po BID for 34 days; assay type: functional, organism-based
Mus musculus [29] = experiment: Antitumor activity against human KARPAS422 cells xenografted in Balb/C nude mouse assessed as reduction in tumor volume at 1.5 to 40 mg/kg, po BID for 2 weeks; assay type: functional, organism-based
Mus musculus [30] = experiment: In-vivo inhibition of EED in Balb/C nude mouse xenografted with human KARPAS422 cells assessed as decrease in global H3K27me3 level at 1.5 to 40 mg/kg, po BID for 21 days; assay type: functional, organism-based
Polycomb protein EED [31] = target: T1, Polycomb protein EED; experiment: Inhibition of recombinant N-terminal GST-tagged EED (76 to 441 residues) (unknown origin) expressed in Escherichia coli BL21-CodonPlus(DE3)-RIL incubated for 20 mins using EED-H3K27me3 peptide based AlphaScreen competition binding assay

T1 sequence (O75530 whole entry): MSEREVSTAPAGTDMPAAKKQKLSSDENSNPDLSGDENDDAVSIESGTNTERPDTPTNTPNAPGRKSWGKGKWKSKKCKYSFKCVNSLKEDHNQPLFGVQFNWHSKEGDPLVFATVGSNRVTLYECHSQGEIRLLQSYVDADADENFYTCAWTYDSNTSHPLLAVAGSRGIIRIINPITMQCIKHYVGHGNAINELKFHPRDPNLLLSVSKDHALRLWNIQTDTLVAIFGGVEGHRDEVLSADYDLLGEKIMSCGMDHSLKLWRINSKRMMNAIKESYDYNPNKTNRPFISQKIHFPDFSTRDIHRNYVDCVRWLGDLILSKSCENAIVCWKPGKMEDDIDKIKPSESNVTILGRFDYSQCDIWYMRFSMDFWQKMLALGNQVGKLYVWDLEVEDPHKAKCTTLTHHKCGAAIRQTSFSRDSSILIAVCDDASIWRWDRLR

pIC50 (Polycomb protein EED [1]): 4.83
SMILES: c1ccc(-c2ccc(NCc3ccco3)n3cncc23)cc1

pIC50 (Polycomb protein EED [1]): 6.11
SMILES: CN(C)Cc1ccc(-c2cnc(NCc3ccon3)n3cnnc23)cc1

pIC50 (Polycomb protein EED [1]): 7.16
SMILES: CN(C)Cc1ccc(-c2cc(C#N)c(NCc3ccno3)n3cnnc23)cc1

pIC50 (Polycomb protein EED [1]): 4.66
SMILES: Cc1ccsc1CNc1c(C#N)cc(-c2ccc(CN(C)C)cc2)c2nncn12

pIC50 (Polycomb protein EED [1]): 7.31
SMILES: CN(C)Cc1ccc(-c2cnc(NCc3ccccc3)n3cnnc23)cc1

pIC50 (Polycomb protein EED [1]): 7.21
SMILES: N#Cc1cc(-c2ccccc2)c2nncn2c1NCc1ccco1

pIC50 (Polycomb protein EED [1]): 6.00
SMILES: N#Cc1ccc2nncn2c1NCc1ccco1

pIC50 (Polycomb protein EED [1]): 6.89
SMILES: CN(C)Cc1ccc(-c2cnc(NCc3ccno3)n3cnnc23)cc1

pIC50 (Polycomb protein EED [1]): 4.91
SMILES: Cc1ccc(CNc2ncc(-c3ccc(CN(C)C)cc3)c3nncn23)s1

pIC50 (Polycomb protein EED [1]): 4.66
SMILES: CN(C)Cc1ccc(-c2cc(C#N)c(NCc3ccccc3)n3cnnc23)cc1

pIC50 (Polycomb protein EED [1]): 7.89
SMILES: CN(C)Cc1ccc(-c2cnc(NCc3ccco3)n3cnnc23)cc1

Further lines, the molecule ahead of its results:

SMILES: CN(C)Cc1ccc(-c2cc(C#N)c(NCc3cnco3)n3cnnc23)cc1
pIC50 (Polycomb protein EED [1]): 6.82

SMILES: CN(C)Cc1ccc(-c2cnc(NCc3ccc(F)s3)n3cnnc23)cc1
pIC50 (Polycomb protein EED [1]): 6.82

SMILES: N#Cc1cc(-c2ccccc2F)c2nncn2c1NCc1ccco1
pIC50 (Polycomb protein EED [1]): 7.52
pIC50 (Polycomb protein EED [2]): 6.68
pIC50 (KARPAS-422 [3]): 7.12
hepatic extraction ratio [4]: 0.8
fraction unbound [5]: 0.0281
AUC/dose (Mus musculus [6]): 1751 nM·h
AUC/dose (Mus musculus [7]): 714 nM·h
fAUC/dose (Mus musculus [8]): 20.1 nM·h
bioavailability [9]: 42%

SMILES: CN(C)Cc1ccc(-c2cc(C#N)c(NCc3sccc3Cl)n3cnnc23)cc1
pIC50 (Polycomb protein EED [1]): 5.63

SMILES: CN(C)Cc1ccc(-c2cnc(NCc3cnco3)n3cnnc23)cc1
pIC50 (Polycomb protein EED [1]): 6.54

SMILES: CN(C)Cc1ccc(-c2cc(C#N)c(NCc3ccco3)n3cnnc23)cc1
pIC50 (Polycomb protein EED [1]): 7.89 to 8.05

SMILES: CCN(c1cc(-c2ccc(CN3CCOCC3)cc2)cc(C(=O)NCc2c(C)cc(C)[nH]c2=O)c1C)C1CCOCC1 [TAZEMETOSTAT]
pIC50 (KARPAS-422 [3]): 7.92
fraction unbound [5]: 0.014
AUC/dose (Mus musculus [6]): 1303 nM·h
AUC/dose (Mus musculus [7]): 254 nM·h
fAUC/dose (Mus musculus [8]): 4 nM·h
bioavailability [9]: 20%
clearance (in vivo [10]): 22 mL/min/kg
Vd (in vivo [11]): 1.2 L/kg
half-life (in vivo [12]): 1.6 h

SMILES: c1ccc(-c2cnc(NCc3ccco3)n3cnnc23)cc1
pIC50 (Polycomb protein EED [1]): 7.28

SMILES: CS(=O)(=O)c1ccc(-c2cnc(NCc3ccco3)n3cnnc23)cc1
pIC50 (Polycomb protein EED [1]): 7.66
pIC50 (Polycomb protein EED [2]): 6.66
pIC50 (KARPAS-422 [3]): 7.10
fraction unbound [5]: 0.144 to 0.15
AUC/dose (Mus musculus [6]): 534 nM·h
AUC/dose (Mus musculus [7]): 5648 nM·h
fAUC/dose (Mus musculus [8]): 813 nM·h
F (Mus musculus [13]): 109%
Papp A→B [14]: 3 ×10⁻⁶ cm/s
solubility thermodynamic [15]: 12 µM (≈ 4.43 µg/mL)
solubility [16]: 25 µg/mL (≈ 67.7 µM)
solubility [17]: 26 µg/mL (≈ 70.4 µM)
solubility [18]: 55 µg/mL (≈ 149 µM)
solubility thermodynamic [19]: 35 µg/mL (≈ 94.7 µM)
fraction unbound [20]: 0.08
fraction unbound [21]: 0.24
fraction unbound [22]: 0.13
fAUC/dose (Rattus norvegicus): 1871 nM·h
fAUC/dose (Canis familiaris): 1907 nM·h
clearance [23]: 14 mL/min/kg
clearance [24]: 16 mL/min/kg
bioavailability [25]: 60%
bioavailability [26]: 68%
Activity (Mus musculus [27]): Non-Toxic
Activity (KARPAS-422 [28]): Active
Activity (Mus musculus [29]): Active
Activity (Mus musculus [30]): Dose-dependent effect
clearance (in vivo [10]): 8 mL/min/kg
Vd (in vivo [11]): 0.8 L/kg
half-life (in vivo [12]): 2.2 h

SMILES: CN(C)Cc1ccc(-c2cc(C#N)c(NCc3ccoc3)n3cnnc23)cc1
pIC50 (Polycomb protein EED [1]): 8.05

SMILES: N#Cc1c2c(c3nncn3c1Cl)CN(Cc1ccccc1)CC2
pIC50 (Polycomb protein EED [1]): < 4.00

SMILES: CN(C)Cc1ccc(-c2cnc(NCc3sccc3Cl)n3cnnc23)cc1
pIC50 (Polycomb protein EED [1]): 7.28

SMILES: Cc1ccsc1CNc1ncc(-c2ccc(CN(C)C)cc2)c2nncn12
pIC50 (Polycomb protein EED [1]): 7.31

SMILES: CN(C)Cc1ccc(-c2cnc(NCc3ccoc3)n3cnnc23)cc1
pIC50 (Polycomb protein EED [1]): 7.72

SMILES: COc1ccccc1CNc1ncc(-c2ccc(CN(C)C)cc2)c2nncn12
pIC50 (Polycomb protein EED [1]): 7.03

SMILES: CN(C)Cc1ccc(-c2cc(C#N)c(NCc3cccs3)n3cnnc23)cc1
pIC50 (Polycomb protein EED [1]): 7.70

SMILES: CN(C)Cc1ccc(-c2cnc(NCc3cccs3)n3cnnc23)cc1
pIC50 (Polycomb protein EED [1]): 7.03

SMILES: COc1ccccc1CNc1c(C#N)cc(-c2ccc(CN(C)C)cc2)c2nncn12
pIC50 (Polycomb protein EED [1]): 4.83

SMILES: CN(C)Cc1ccc(-c2cc(C#N)c(NCc3ccc(F)s3)n3cnnc23)cc1
pIC50 (Polycomb protein EED [1]): 6.29

SMILES: Cc1ccc(CNc2c(C#N)cc(-c3ccc(CN(C)C)cc3)c3nncn23)s1
pIC50 (Polycomb protein EED [1]): 5.65

SMILES: N#Cc1c2c(c3nncn3c1NCc1ccco1)CN(Cc1ccccc1)CC2
pIC50 (Polycomb protein EED [1]): 5.39
pIC50 (Polycomb protein EED [2]): 5.48
pIC50 (Polycomb protein EED [31]): 6.21

SMILES: CN(C)Cc1ccc(-c2cc(C#N)c(NCc3ccon3)n3cnnc23)cc1
pIC50 (Polycomb protein EED [1]): 7.16

SMILES: c1coc(CNc2ncc(-c3ccc(CN4CCCC4)cc3)c3nncn23)c1
pIC50 (Polycomb protein EED [1]): 8.15
pIC50 (Polycomb protein EED [2]): 7.49
pIC50 (KARPAS-422 [3]): 7.06
hepatic extraction ratio [4]: 0.52
fraction unbound [5]: 0.381
AUC/dose (Mus musculus [6]): 765 nM·h
AUC/dose (Mus musculus [7]): 531 nM·h
fAUC/dose (Mus musculus [8]): 202 nM·h
bioavailability [9]: 71%
